The first assay deals with BTK (Homo sapiens (Human), UniProt Q06187). Nature of the assay: In vitro BTK kinase assay: BTK-POLYGAT-LS ASSAY.
BTK, sequence (Q06187 whole entry): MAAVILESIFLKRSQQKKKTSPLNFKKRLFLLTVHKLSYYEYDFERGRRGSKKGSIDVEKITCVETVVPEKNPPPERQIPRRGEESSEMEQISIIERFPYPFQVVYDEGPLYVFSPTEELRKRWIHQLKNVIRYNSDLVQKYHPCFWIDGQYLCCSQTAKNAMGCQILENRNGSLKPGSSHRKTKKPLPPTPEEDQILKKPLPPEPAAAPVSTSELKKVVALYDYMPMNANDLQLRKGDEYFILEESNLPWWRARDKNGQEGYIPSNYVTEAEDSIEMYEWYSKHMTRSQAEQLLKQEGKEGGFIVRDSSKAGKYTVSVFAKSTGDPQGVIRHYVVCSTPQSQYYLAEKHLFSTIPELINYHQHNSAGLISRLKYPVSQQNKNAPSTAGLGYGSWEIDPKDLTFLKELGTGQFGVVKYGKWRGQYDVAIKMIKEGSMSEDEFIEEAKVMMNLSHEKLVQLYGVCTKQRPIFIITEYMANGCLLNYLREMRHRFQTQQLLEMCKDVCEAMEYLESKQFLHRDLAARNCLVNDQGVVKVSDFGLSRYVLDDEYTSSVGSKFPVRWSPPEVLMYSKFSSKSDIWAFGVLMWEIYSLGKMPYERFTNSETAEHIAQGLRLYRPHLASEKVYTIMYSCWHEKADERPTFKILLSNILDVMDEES
Conditions: not given
As a reminder, the IC50 is the concentration that inhibits the measured activity by half. With `O=C(Nc1ccc(F)cc1)Nc1cccc(C2CCCN(c3ncnc4[nH]ccc34)C2)c1` (centres unmarked) [compound 185], the IC50 is 1000 to 10000 nM.

`O=C(Nc1cccc(C2CCCN(c3ncnc4[nH]ccc34)C2)c1)Nc1ccccc1N1C[C@@H](O)[C@H](O)C1` (some centres unmarked) [compound 158] returned an IC50 of 100 to 999 nM. On to `O=C(Nc1cccc(C2CCCN(c3ncnc4[nH]ccc34)C2)c1)Nc1c(Cl)cccc1C(F)(F)F` (centres unmarked) [compound 161], for which the 50% inhibitory concentration (IC50) fell in the range of 100 to 999 nM. In turn, `O=C(Nc1cccc([C@H]2CN(c3ncnc4[nH]ccc34)CC[C@H]2CO)c1)Nc1ccccc1N1CCCC1` [compound 123, 1-(3-((3S/R)-4-(hydroxymethyl)-1-(7H-pyrrolo[2,3-d]pyrimidin-4-yl)piperidin-3-yl)phenyl)-3-(2-(pyrrolidin-1-yl)phenyl)urea] registered a half-maximal inhibitory concentration (IC50) of 100 to 999 nM. The same measure, in the same setting: in the case of `Nc1ncnc(N2CCCC(c3nc(NC(=O)Nc4c(F)cc(F)cc4N4CCCC4)cs3)C2)c1Cl` (centres unmarked) [compound 114, 1-(2-(1-(6-amino-5-chloropyrimidin-4-yl)piperidin-3-yl)thiazol-4-yl)-3-(2,4-difluoro-6-(pyrrolidin-1-yl)phenyl)urea] it was 100 to 999 nM; in that of `O=C(Nc1cccc(C2CCCN(c3ncnc4[nH]ccc34)C2)c1)N[C@@H](CO)C1CCCCC1` (some centres unmarked) [compound 213], 1000 to 10000 nM. Still for that read-out and setting: in the case of `CC(C)CN1CCN(c2ncnc3[nH]ccc23)CC1c1cccc(NC(=O)Nc2ccccc2)c1` (centres unmarked) [compound 129, 1-(3-(1-isobutyl-4-(7H-pyrrolo[2,3-d]pyrimidin-4-yl)piperazin-2-yl)phenyl)-3-phenylurea] it was 1000 to 10000 nM; in that of `COc1ncccc1NC(=O)Nc1cccc(C2CCCN(c3ncnc4[nH]ccc34)C2)c1` (centres unmarked) [compound 215], 1000 to 10000 nM; in that of `O=C(Nc1cccc(C2CCCN(c3ncnc4[nH]ccc34)C2)c1)Nc1c(F)cccc1C(F)(F)F` (centres unmarked) [compound 194], 1000 to 10000 nM.

With `O=C(Nc1cc(C2CCCN(c3ncnc4[nH]ccc34)C2)ccc1OC(F)(F)F)c1ccccc1` (centres unmarked) [Cmpd 85, N-(5-(1-(7H-pyrrolo[2,3-d]pyrimidin-4-yl)piperidin-3-yl)-2-(trifluoromethoxy)phenyl)benzamide], the IC50 fell in the range of 100 to 999 nM. Consider `O=C(Nc1cccc(C2CCCN(c3ncnc4[nH]ccc34)C2)c1)Nc1ccccc1F` (centres unmarked) [compound 182], for which the IC50 is 1000 to 10000 nM. Still for that read-out and setting: in the case of `O=C(Nc1cc(C2CCCN(c3ncnc4[nH]ccc34)C2)ccc1OC(F)(F)F)c1c(Cl)cccc1Cl` (centres unmarked) [Cmpd 88, N-(5-(1-(7H-pyrrolo[2,3-d]pyrimidin-4-yl)piperidin-3-yl)-2-(trifluoromethoxy)phenyl)-2,6-dichlorobenzamide] it was 1000 to 10000 nM.

Still in this assay, the particulars now being: read-out: IC50 (10 uM ATP); 10 uM ATP; in vitro Btk kinase assay, Example 41.
For `O=C(Nc1cccc(C2CCCN(c3ncnc4[nH]ccc34)C2)c1)c1cccc(O)c1` (centres unmarked) [compound 15, N-(3-(1-(7H-pyrrolo[2,3-d]pyrimidin-4-yl)piperidin-3-yl)phenyl)-3-hydroxybenzamide], the IC50 was > 10000 nM.

On to `O=C1[C@H](Nc2cc(Cl)cc(Cl)c2)CCN1[C@H]1CN(c2ncnc3[nH]ccc23)CC[C@@H]1C(F)(F)F` [compound 322], for which the IC50 is < 100 nM. Turning to `CN1CCCCC1CNC(=O)Nc1cccc(C2CCCN(c3ncnc4[nH]ccc34)C2)c1` (centres unmarked) [compound 228], the IC50 is > 10000 nM. Same read-out and setting: to `O=C(Nc1ccncc1)Nc1cccc(C2CCCN(c3ncnc4[nH]ccc34)C2)c1` (centres unmarked) [Cmpd 31, 1-(3-(1-(7H-pyrrolo[2,3-d]pyrimidin-4-yl)piperidin-3-yl)phenyl)-3-(pyridin-4-yl)urea] belongs > 10000 nM; to `O=C(Nc1cccc(C2CCCN(c3ncnc4[nH]ccc34)C2)c1)c1cccnc1` (centres unmarked) [compound 12, N-(3-(1-(7H-pyrrolo[2,3-d]pyrimidin-4-yl)piperidin-3-yl)phenyl)nicotinamide], > 10000 nM; to `C[C@H]1CCN(c2ncnc(N)c2F)C[C@@H]1N1CCCC(Nc2cc(Cl)cc(Cl)c2)C1=O` (stereo partly drawn) [compound 281, trans-1′-(6-Amino-5-fluoropyrimidin-4-yl)-3-(3,5-dichlorophenylamino)-4′-methyl-1,3′-bipiperidin-2-one], < 100 nM. The same measure, in the same setting: to `Nc1ncnc(N2CCC[C@@H](N3CCCC(NC4CCC(F)(F)CC4)C3=O)C2)c1F` (stereo partly drawn) [compound 294, (3′R)-1′-(6-Amino-5-fluoropyrimidin-4-yl)-3-(4,4-difluorocyclohexylamino)-1,3′-bipiperidin-2-one] belongs > 10000 nM; to `Nc1ncnc(N2CCC[C@@H](N3CCCC(Nc4ccc(C(=O)O)cc4)C3=O)C2)c1F` (stereo partly drawn) [compound 298, 4-((3′R)-1′-(6-Amino-5-fluoropyrimidin-4-yl)-2-oxo-1,3′-bipiperidin-3-ylamino)benzoic acid], > 10000 nM. Still for that read-out and setting: in the case of `Cn1nccc1NC(=O)Nc1cccc(C2CCCN(c3ncnc4[nH]ccc34)C2)c1` (centres unmarked) [compound 249] it was > 10000 nM. With `CN/C(=N/C#N)Nc1cccc(C2CCCN(c3ncnc4[nH]ccc34)C2)c1` (centres unmarked) [Cmpd 77, (E)-1-(3-(1-(7H-pyrrolo[2,3-d]pyrimidin-4-yl)piperidin-3-yl)phenyl)-2-cyano-3-methylguanidine], the 50% inhibitory concentration (IC50) is > 10000 nM.

For `O=C(Nc1ccccc1)Nc1cccc(C2CCCN(c3ncnc4[nH]cnc34)C2)c1` (centres unmarked) [compound 174], the IC50 was in the range of 100 to 999 nM. On the same count and under the same terms, to `O=C1C(NC2CCCC2)CCCN1[C@@H]1CCCN(c2ncnc3[nH]ccc23)C1` (stereo partly drawn) [compound 303, (3′R)-3-(Cyclopentylamino)-1′-(7H-pyrrolo[2,3-d]pyrimidin-4-yl)-1,3′-bipiperidin-2-one] belongs > 10000 nM. Same read-out and setting: in the case of `O=C(Nc1cccc(C2CCCN(c3ncnc4[nH]ccc34)C2)c1)c1ccccn1` (centres unmarked) [compound 13, N-(3-(1-(7H-pyrrolo[2,3-d]pyrimidin-4-yl)piperidin-3-yl)phenyl)picolinamide] it was > 10000 nM. Still for that read-out and setting: to `O=C(Nc1cccc(C2CCCN(c3ncnc4[nH]ccc34)C2)c1)Nc1ccccc1N1CCC[C@H]1CO` (some centres unmarked) [compound 152] belongs < 100 nM. Turning to `O=C(Nc1cccc(C2CCCN(c3ncnc4[nH]ccc34)C2)c1)NC1CCNC1` (centres unmarked) [compound 239], the IC50 was > 10000 nM. Same read-out and setting: in the case of `N#Cc1c(N)ncnc1N1CCCC(c2nc(NC(=O)Nc3ccccc3N3CCCC3)cs2)C1` (centres unmarked) [compound 109, 1-(2-(1-(6-amino-5-cyanopyrimidin-4-yl)piperidin-3-yl)thiazol-4-yl)-3-(2-(pyrrolidin-1-yl)phenyl)urea] it was < 100 nM. Take `Cn1ccc2c(N3CCCC(c4cccc(NC(=O)Nc5ccccc5)c4)C3)ncnc21` (centres unmarked) [Cmpd 93, 1-(3-(1-(7-methyl-7H-pyrrolo[2,3-d]pyrimidin-4-yl)piperidin-3-yl)phenyl)-3-phenylurea]: the 50% inhibitory concentration (IC50) is > 10000 nM. Still for that read-out and setting: in the case of `CC(=O)N1CCN(c2ncnc3[nH]ccc23)CC1c1cccc(NC(=O)Nc2ccccc2)c1` (centres unmarked) [compound 127, 1-(3-(1-acetyl-4-(7H-pyrrolo[2,3-d]pyrimidin-4-yl)piperazin-2-yl)phenyl)-3-phenylurea] it was > 10000 nM; in that of `Nc1ncnc(N2CC[C@H](F)[C@H](N3CCC[C@H](Nc4cc(F)cc(Cl)c4)C3=O)C2)c1F` [compound 343, (3S,3′R,4′S)-1′-(6-amino-5-fluoropyrimidin-4-yl)-3-(3-chloro-5-fluorophenylamino)-4′-fluoro-1,3′-bipiperidin-2-one], > 10000 nM. The same measure, in the same setting: to `COc1c(N)ncnc1N1CCCC(c2cccc(NC(=O)Nc3ccccc3)c2)C1` (centres unmarked) [Cmpd 97, 1-(3-(1-(6-Amino-5-methoxypyrimidin-4-yl)piperidin-3-yl)phenyl)-3-phenylurea] belongs > 10000 nM.

The values are drawn from patent US9790229B2, “Bruton's tyrosine kinase inhibitors” (priority 2009, dated 2017).
